In PubChem BioAssay AID330 (DTP/NCI, 2004) one finds T/C data, which are given here for 19 molecules.

The test system of the assay is P388 leukemia ip, CD2F1 mice, survival T/C. In words: NCI In Vivo Anticancer Drug Screen. Data for tumor model P388 Leukemia (intraperitoneal) in CD2F1 (CDF1) mice. The settings on record: endpoint: median survival time, higher = longer survival. In short, it runs like this: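 Mice carrying the transplanted tumor received test compound or vehicle. Survival was recorded in each group, and the value is the treated-group measurement divided by that of the vehicle-treated control group.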

Setting [1] is: dose: 50.0 mg/kg/injection, schedule: Q01DX009 (ip), vehicle: Klucel (hydroxypropylcellulose) (HPC).
Setting [2] is: dose: 100.0 mg/kg/injection, schedule: Q01DX009 (ip), vehicle: Klucel (hydroxypropylcellulose) (HPC).
Where [3] appears, read: dose: 200.0 mg/kg/injection, schedule: Q01DX009 (ip), vehicle: Klucel (hydroxypropylcellulose) (HPC).
The mark [4] stands for this setting: dose: 50.0 mg/kg/injection, schedule: Q01DX005 (ip), vehicle: saline with Tween-80.
[5] abbreviates: dose: 100.0 mg/kg/injection, schedule: Q01DX005 (ip), vehicle: saline with Tween-80.
Where [6] appears, read: dose: 200.0 mg/kg/injection, schedule: Q01DX005 (ip), vehicle: saline with Tween-80.
The mark [7] stands for this setting: dose: 50.0 mg/kg/injection, schedule: Q01DX009 (ip), vehicle: saline.
Where [8] appears, read: dose: 100.0 mg/kg/injection, schedule: Q01DX009 (ip), vehicle: saline.
[9] abbreviates: dose: 200.0 mg/kg/injection, schedule: Q01DX009 (ip), vehicle: saline.

Where “and” joins values, the source holds several entries; their conditions need not be identical. Identical values can stand only once. Toxic doses and inconclusive results are not listed.

Turning to `COc1ccc2c3c([nH]c2c1[N+](=O)[O-])C(C)N(S(=O)(=O)c1ccccc1)CC3` (centres undefined), the T/C is 95 % of control (dose: 8.5 mg/kg/injection, schedule: Q01DX005 (ip), vehicle: Klucel (hydroxypropylcellulose) (HPC)); 97 % of control (dose: 17.0 mg/kg/injection, schedule: Q01DX005 (ip), vehicle: Klucel (hydroxypropylcellulose) (HPC)); 104 % of control (dose: 34.0 mg/kg/injection, schedule: Q01DX005 (ip), vehicle: Klucel (hydroxypropylcellulose) (HPC)); 95 % of control (dose: 68.0 mg/kg/injection, schedule: Q01DX005 (ip), vehicle: Klucel (hydroxypropylcellulose) (HPC)); 89 % of control (dose: 136.0 mg/kg/injection, schedule: Q01DX005 (ip), vehicle: Klucel (hydroxypropylcellulose) (HPC)).
As for `Cc1cc(N(CCCl)CCCl)ccc1NC(=O)c1ccccc1`, the T/C is, setting by setting: (dose: 50.0 mg/kg/injection, schedule: Q04DX003 (ip), vehicle: Klucel (hydroxypropylcellulose) (HPC)) 109 % of control; (dose: 100.0 mg/kg/injection, schedule: Q04DX003 (ip), vehicle: Klucel (hydroxypropylcellulose) (HPC)) 118 % of control; (dose: 200.0 mg/kg/injection, schedule: Q04DX003 (ip), vehicle: Klucel (hydroxypropylcellulose) (HPC)) 116 % of control.
As for `CCCCCCCC/C=C/CCCCCCCC(=O)OCC(=O)OCC`, the T/C is 102 % of control under setting [1], 93 % of control under setting [2] and 104 % of control under setting [3].
Consider `Nc1nc(N)c2cc(N3CCCC3c3ccc(Cl)cc3)ccc2n1` (centres undefined), for which the T/C is, setting by setting: (dose: 1.56 mg/kg/injection, schedule: Q01DX005 (ip), vehicle: Klucel (hydroxypropylcellulose) (HPC)) 98 % of control; (dose: 1.56 mg/kg/injection, schedule: Q01DX009 (ip), vehicle: Klucel (hydroxypropylcellulose) (HPC)) 100 % of control and 101 % of control; (dose: 3.12 mg/kg/injection, schedule: Q01DX005 (ip), vehicle: Klucel (hydroxypropylcellulose) (HPC)) 98 % of control; (dose: 3.12 mg/kg/injection, schedule: Q01DX009 (ip), vehicle: Klucel (hydroxypropylcellulose) (HPC)) 101 % of control and 118 % of control; (dose: 6.25 mg/kg/injection, schedule: Q01DX005 (ip), vehicle: Klucel (hydroxypropylcellulose) (HPC)) 96 % of control; (dose: 12.5 mg/kg/injection, schedule: Q01DX005 (ip), vehicle: Klucel (hydroxypropylcellulose) (HPC)) 108 % of control.
As to `COc1cc(-c2ccc(N=Nc3ccc(N)nc3N)c(OC)c2)ccc1N=Nc1ccc(N)nc1N`, the T/C by setting is: under setting [4], 101 % of control; under setting [5], 104 % of control; under setting [6], 90 % of control.
For `C=C1C(=O)OC2/C=C(\C)C(OC(C)=O)/C=C\C(C)(O)CC(OC(=O)/C(C)=C/C)C12` (centres undefined), the T/C reads like this: (dose: 10.0 mg/kg/injection, schedule: Q01DX009 (ip), vehicle: saline with Tween-80) 105 % of control; (dose: 20.0 mg/kg/injection, schedule: Q01DX009 (ip), vehicle: saline with Tween-80) 99 % of control; (dose: 40.0 mg/kg/injection, schedule: Q01DX009 (ip), vehicle: saline with Tween-80) 110 % of control; (dose: 80.0 mg/kg/injection, schedule: Q01DX009 (ip), vehicle: saline with Tween-80) 115 % of control.
With `CCOc1ccc(-n2c(C)c(COC(=O)NC)c(COC(=O)NC)c2C)cc1`, the T/C (dose: 12.5 mg/kg/injection, schedule: Q01DX009 (ip), vehicle: Klucel (hydroxypropylcellulose) (HPC)) is 152 % of control and 166 % of control; the T/C (dose: 25.0 mg/kg/injection, schedule: Q01DX009 (ip), vehicle: Klucel (hydroxypropylcellulose) (HPC)) was 150 % of control; the T/C under setting [1] was 109 % of control.
Regarding `CC(=O)OCC1=C(COC(C)=O)C(=O)c2cc3ccccc3cc2C1=O`, the T/C reads like this: (dose: 25.0 mg/kg/injection, schedule: Q01DX001 (ip), vehicle: saline with Tween-80) 92 % of control; (dose: 50.0 mg/kg/injection, schedule: Q01DX001 (ip), vehicle: saline with Tween-80) 92 % of control; (dose: 100.0 mg/kg/injection, schedule: Q01DX001 (ip), vehicle: saline with Tween-80) 94 % of control; (dose: 200.0 mg/kg/injection, schedule: Q01DX001 (ip), vehicle: saline with Tween-80) 101 % of control.
Consider `Oc1ccc(N=Cc2ccc3c(c2)OCO3)cc1`, for which the T/C (dose: 12.5 mg/kg/injection, schedule: Q01DX009 (ip), vehicle: other) is 109 % of control; the T/C (dose: 25.0 mg/kg/injection, schedule: Q01DX009 (ip), vehicle: other) was 111 % of control; the T/C (dose: 50.0 mg/kg/injection, schedule: Q01DX009 (ip), vehicle: other) was 94 % of control; the T/C (dose: 100.0 mg/kg/injection, schedule: Q01DX009 (ip), vehicle: other) was 113 % of control; the T/C (dose: 200.0 mg/kg/injection, schedule: Q01DX009 (ip), vehicle: other) was 111 % of control; the T/C (dose: 400.0 mg/kg/injection, schedule: Q01DX009 (ip), vehicle: other) is 108 % of control.
For the molecule `NC(c1cccc([N+](=O)[O-])c1)S(=O)(=O)O` (centres undefined), the T/C is, setting by setting: (dose: 100.0 mg/kg/injection, schedule: Q04DX002 (ip), vehicle: saline) 99 % of control; (dose: 200.0 mg/kg/injection, schedule: Q04DX002 (ip), vehicle: saline) 105 % of control; (dose: 400.0 mg/kg/injection, schedule: Q04DX002 (ip), vehicle: saline) 105 % of control.
Consider `O=C(O)/C=C(/C(=O)O)C12CCN3CC4=CCOC5CC(=O)NC1C5C4CC32` (centres undefined), for which the T/C runs as follows: (dose: 60.0 mg/kg/injection, schedule: Q01DX005 (ip), vehicle: Klucel (hydroxypropylcellulose) (HPC)) 97 % of control; (dose: 120.0 mg/kg/injection, schedule: Q01DX005 (ip), vehicle: Klucel (hydroxypropylcellulose) (HPC)) 106 % of control; (dose: 240.0 mg/kg/injection, schedule: Q01DX005 (ip), vehicle: Klucel (hydroxypropylcellulose) (HPC)) 110 % of control.
For `CCCCCCCCCCCCNc1ncnc2[nH]ncc12`, the T/C is 102 % of control under setting [4], 98 % of control under setting [5] and 98 % of control under setting [6].
`COc1ccc(CSC(=S)Nc2ccc(Cl)cc2Cl)cc1`: the T/C was 106 % of control under setting [7], 105 % of control under setting [8] and 99 % of control under setting [9].
In the same order, the values of `CCOC(=O)Nc1ccc2nc(-c3cscn3)[nH]c2c1` are 101 % of control, 112 % of control and 115 % of control.
Consider `CN(CCc1nnnn1C)/N=C\C=N\N(C)CCc1nnnn1C`, for which the T/C reads like this: (dose: 50.0 mg/kg/injection, schedule: Q01DX001 (ip), vehicle: Klucel (hydroxypropylcellulose) (HPC)) 112 % of control; (dose: 100.0 mg/kg/injection, schedule: Q01DX001 (ip), vehicle: Klucel (hydroxypropylcellulose) (HPC)) 112 % of control; (dose: 200.0 mg/kg/injection, schedule: Q01DX001 (ip), vehicle: Klucel (hydroxypropylcellulose) (HPC)) 97 % of control.
Take `CC(=O)OC(CCCCCCCCCCCCC(C)C)CC(=O)O` (centres undefined): the T/C by setting is: (dose: 8.13 mg/kg/injection, schedule: Q01DX005 (ip), vehicle: Klucel + Tween-80) 102 % of control; (dose: 16.25 mg/kg/injection, schedule: Q01DX005 (ip), vehicle: Klucel + Tween-80) 98 % of control; (dose: 32.5 mg/kg/injection, schedule: Q01DX005 (ip), vehicle: Klucel + Tween-80) 90 % of control; (dose: 65.0 mg/kg/injection, schedule: Q01DX005 (ip), vehicle: Klucel + Tween-80) 90 % of control.
As for `COc1ccc(Cc2nnc(C)c3c(C)[nH]nc23)cc1`, the T/C by setting is: under setting [1], 91 % of control; under setting [2], 91 % of control; under setting [3], 86 % of control.
Consider `C=CCC12CC(O)C(O)CC1(O)OC(c1cc(OC)c(OC)c(OC)c1)C2C` (centres undefined), for which the T/C (dose: 1.25 mg/kg/injection, schedule: Q01DX005 (ip), vehicle: acid diluted with saline) is 115 % of control; the T/C (dose: 2.5 mg/kg/injection, schedule: Q01DX005 (ip), vehicle: acid diluted with saline) was 102 % of control; the T/C (dose: 5.0 mg/kg/injection, schedule: Q01DX005 (ip), vehicle: acid diluted with saline) was 100 % of control; the T/C (dose: 10.0 mg/kg/injection, schedule: Q01DX005 (ip), vehicle: acid diluted with saline) is 93 % of control.
On to `O=C(O)CN1C(=O)C=CC1=O`, for which the T/C is 90 % of control (dose: 3.12 mg/kg/injection, schedule: Q01DX009 (ip), vehicle: saline); 101 % of control (dose: 6.25 mg/kg/injection, schedule: Q01DX009 (ip), vehicle: saline); 101 % of control and 86 % of control (dose: 12.5 mg/kg/injection, schedule: Q01DX009 (ip), vehicle: saline).
